Laboratory results from patent US6268395A, “Phorbol derivatives having antivirus activity” (Lead Chemical Co., Ltd., priority 1999, dated 2001).
Entries after “also recorded” stand apart in the source; their conditions may differ. Like-named read-outs stand apart in the source and are kept apart here.

Legend:
HIV-1 = assay: Inhibition of HIV-1-induced cytopathic effect (CPE) in MT-4 cells; type: cell-based, HIV-1 (LAV-1) in human MT-4 cells; details: for IC100: Human immunodeficiency virus 1, MT4, 120 h, 5 days, NE: Not effective, read-out: Anti-HIV-1 IC100 (complete prevention of HIV-1-induced CPE); for IC100 / CPE inhibitory effect (in words) / r = CC0/IC100: MT-4 cells; for CPE inhibitory effect (in words): HIV-1; for r = CC0/IC100: 7200 min; for anti-HIV-1 activity: at concentrations up to 500 μg/mL
Protocol: (§1) In the experiments, MT-4 cells were used. The cells were incubated at 37° C. under 5% CO2 in RPMI-1640 medium (FCS, Flow laboratories, North Ryde, Australia) supplemented with 100 μg/mL of streptomycin (Meiji Seika, Tokyo, Japan), and 100 U/mL of penicillin G (Banyu Pharmaceutical, Tokyo, Japan).
HIV-1 was obtained from culture supernatant of MOLT-4 cells that had been persistently infected with LAV-1.
j) Assay of cytopathic effect(CPE) of HIV-1 in MT-4 cells
(§2) The inhibitory effect of test compounds on HIV-1-induced cytopathogenicity was measured by the method of Harada, Koyanagi & Yamamoto (1985). MT-4 cells were infected for 1 hour with HIV-1 (at TCID50 of 0.001/well) and non-adsorbed virus was removed by washing. Then, the cells were resuspended in RPMI-1640 medium at a concentration of 1.5×10^5 cells/mL. A 200 μL/well of the cell suspension was cultured for 5 days in days in a 96-well culture plate containing various concentrations (12 doses, maximum 1,000 μg/mL and minimum […]) of the test compounds. Control assays were performed in the absence of test compounds with HIV-1-infected and uninfected cultures. On day 5, the IC100 of the test compound required for completely preventing HIV-1-induced CPE(IC) was determined through an optical microscope and the cell growth was examined to give the CC0 that reduces the viability of MT-4 cells.
A variety of phorbol esters and related compounds were tested for their ability to inhibit the replication and infectivity of HIV-1 in MT-4 cells, a human CD4-positive cell line continually infected with HTLV-1, and the results are presented in Table 3.

[1] = Cell growth / viability of MT-4 cells (cytotoxicity); type: cell-based; details: human, day 5, read-out: CC0 (concentration that reduces viability of MT-4 cells; minimum cytotoxic concentration)
Protocol: as §1, §2

protein kinase C (PKC) = type: biochemical, mouse; details: for % Activity of PKC: relative to TPA positive control; for activation of PKC (in words): concentration not given
Protocol: After addition of 0.55 nM [γ-^32 P] ATP (50×10^3 cpm/nmol), the reaction mixture was mixed and allowed to be kept at 37° C. for 30 minutes. Then the reactions were terminated by the addition of 10 μl of ice-cold stop reagent. Aliquots of 35 μL were transferred to the center of peptide binding discs. After 10 minutes, the discs were washed two times with 75 mM orthophosphoric acid. The activity of ^32 P-labeled samples was counted in 10/mL of a scintillation fluid for 1 minute. […] Blank (in the absence of PKC) and control (in the absence of TPA or tested samples) were also carried out. One unit of PKC was defined as that amount of enzyme, which incorporated 1 nmol of phosphate from ATP into its substrate, peptide, per minute under the assay conditions, described above.

[2] = 10 ng/mL (standard concentration)

Compound	IC100 (HIV-1) [µg/mL]	CPE inhibitory effect (in words) (HIV-1)	r = CC0/IC100 (HIV-1)	MCC at 120 h [1] [µg/mL]	% Activity of PKC (protein kinase C (PKC); 10 ng/mL) [%]	% Activity of PKC (protein kinase C (PKC); 2.7 μg/mL) [%]	activation of PKC (in words) (protein kinase C (PKC))	anti-HIV-1 activity (HIV-1)	PKC activation (in words) (protein kinase C (PKC); 10 ng to 2.7 μg/mL)	PKC activation (in words) (protein kinase C (PKC); [2])	PKC activation (in words) (protein kinase C (PKC); high concentrations)
C/C=C(\C)C(=O)O[C@@H]1[C@@H](C)[C@@]2(O)[C@@H](C=C(CO)C[C@]3(O)C(=O)C(C)=C[C@@H]23)[C@@H]2C(C)(C)[C@]12OC(=O)C(C)CC (stereo partly drawn) [Compound 5, 12-O-Tigioylphorbol-13-(2-methylbutyrate)]	31.3	weak inhibitory effects against CPE	2.00	62.5	10	40	weak activation of PKC				
CC1=C[C@H]2[C@@]3(O)[C@H](C)[C@@H](OC(=O)c4ccccc4)[C@]4(OC(=O)c5ccccc5)[C@H]([C@@H]3C=C(COC(=O)c3ccccc3)C[C@]2(O)C1=O)C4(C)C [Compound 12, Phorbol-12,13,20-tribenzoate]		showed no effect		31.3		100	enhanced the activation of PKC	did not show anti-HIV-1 activity			
CCCCCCCCCCCCCC(=O)O[C@@H]1[C@@H](C)[C@@]2(O)[C@@H](C=C(COC(C)=O)C[C@]3(O)C(=O)C(C)=C[C@@H]23)[C@@H]2C(C)(C)[C@]12OC(C)=O [Compound 14, 12-O-Tetradecanoylphorbol-13,20-diacetate]	15.6	dramatically decreased	4.01	62.5	0	30	dramatically decreased				
CO[C@]12CC(COC(C)=O)=C[C@H]3[C@@H]4C(C)(C)[C@]4(OC(C)=O)[C@H](OC(C)=O)[C@@H](C)[C@]3(O)[C@@H]1C=C(C)C2=O [Compound 16, 4-O-Methylphorbol-12,13,20-triacetate]	31.3	increased in the CPE inhibitory effect	3.99	125	0	0	no activation of PKC		no activation		
CC(=O)OCC12CC3(O)C(=O)C1(C)C1C3C3(O)C(C)C(OC(C)=O)C4(OC(C)=O)C(C3C12)C4(C)C (stereo not drawn) [Compound 24, Lumiphorbol-12,13,20-triacetate]		showed no effect		500	0	93		did not show anti-HIV-1 activity		no activation was observed	enhanced activation of PKC
CC(=O)OCC1=C[C@H]2[C@@H]3C(C)(C)[C@]3(OC(C)=O)[C@H](OC(C)=O)[C@@H](C)[C@]2(OC(C)=O)[C@@H]2C=C(C)C(=O)[C@@]2(OC(C)=O)C1 [Compound 17, Phorbol-4,9,12,13,20-pentaacetate]	125		2.00	250	0					did not activate PKC	
CC1=C[C@@H]2[C@@H](CC(CO)=C[C@H]3[C@@H]4C(C)(C)[C@]4(O)[C@H](O)[C@@H](C)[C@]23O)C1=O [Compound 20, 4-Deoxy-4α-phorbol]		did not show CPE inhibitory effect; also recorded: showed no effect		500	0	25	weak activators of PKC	did not show anti-HIV-1 activity			
